Usually melting point stands for the temperature of the solid-liquid transition. A word on the IC50: it is the concentration needed to halve the response being measured.

The record followed here is patent US20080200405A1, “Drug Resistance Reversal In Neoplastic Disease” (priority 2007, published 2008).

Like-named read-outs stand apart in the source and are kept apart here.

One data set has as its system Lipid peroxidation. The data set can be described thus: Lipid peroxidation inhibition (method of Ohkawa). In kind it is biochemical. Conditions: for Lipid Peroxidation Inhibition, % Inhibition: 10 uM.
Data set [1] relates to Doxorubicin resistant SaOS2 cells. The data set can be described thus: Cancer cell viability (MTT) in the presence or absence of doxorubicin. Type of data set: cell-based, human. Conditions: compound 50 ug/mL, 3 days.
A further data set concerns TNFα. The data set can be described thus: Measurement of LPS Induced-TNFα in THP-1 Cells. Type of data set: cell-based, human. Particulars: Homo sapiens. As to the method:
The lipid peroxidation assay method of Ohkawa, H.; Ohishi, N.; Yaki, K. Anal. Biochem. 1979, 95, 351 was used to evaluate […]. […] […] Cells were collected and spun at 1500 g for 10 minutes. Supernatant was collected and analyzed for TNFα.
Mean Percent Inhibition of TNF-alpha by compounds of the present invention is set forth in Table B. TNF-alpha inhibition data is set forth in Table B-1. OT-551 was used in both native form and in the form of nanoparticles. […] Other nitrogenous heterocyclic species of the invention are expected to show similar improvement in efficacy when disposed in nanoparticulate form.

In data set [2] the test system is bFGF-induced angiogenesis in the CAM model. In words: bFGF (FGF2)-stimulated CAM model. In kind it is in vivo, chicken. Particulars: bFGF/FGF2 1 ug, 30 ug injected; for inhibition in vivo at 0.03 mg: Gallus gallus, read-out: % Inhibition ± SEM. As to the method:
In vivo neovascularization was examined by the method previously described by Auerbach et al. (J. Dev. Biol. 41:391-394 (1974)). Ten-day old chicken embryos were purchased from Spafas, Inc. (Preston, Conn.) and were incubated at 37° C. with 55% relative humidity. In the dark, with the aid of a candling lamp, a small hole was punctured in the shell concealing the air sac with a hypodermic needle. A second hole was punctured in the shell on the broadside of the egg directly over an […] portion of the embryonic membrane, as observed during candling. An artificial air sac was created beneath the second hole by applying gentle vacuum to the first hole using a small rubber squeeze bulb. The vacuum caused the chorioallantoic membrane (CAM) to separate from the shell.
For inducing angiogenesis, sterile filter disks were saturated with bFGF (1 μg/ml) (Life Technologies, Gaithersburg, Md.) or other pro-angiogenesis factors and control disks were saturated with PBS without Calcium and Magnesium. Control disks were saturated with PBS without Calcium and Magnesium.
After 24-48 hr, 10-25 ul of test agent was injected intravenously or added topically into the CAM membrane. Eight-Ten eggs/treatment group were used.
The number of vessel branch points contained in a circular region equal to the area of a filter disk was counted for each section. Percent inhibition data are expressed as the quotient of the experimental value minus the negative control value divided by the difference between the positive control value and the negative control value. One image was counted in each CAM preparation, and findings from eight CAM preparations were analyzed for each treatment condition. In addition, each experiment was performed three times. The resulting angiogenesis index is the mean ±SEM (Standard Error of Measurement) of new branch points in each set of treatment. Statistical analysis of blood vessel branching patterns are performed by 1-way analysis of variance (ANOVA) comparing experimental with corresponding control groups. Statistical significance differences are assessed at P value of <0.05.
The CAM model protocol was modified to include stimulus with bFGF. The effect of injected OT 551 was assayed.
TP-H was applied to the CAM model study to determine its respective anti-angiogenesis effects according to the materials and methods provided in Example 1. Basic Fibroblast Growth Factor (bFGF) was used to induce angiogenesis in the CAM model.
Compounds were introduced via injection to the CAM model study to determine its respective anti-angiogenesis effects according to the materials and methods provided in Example 1. bFGF was used to induce angiogenesis in the CAM model.

Data set [3] relates to Human whole blood clot formation. The protocol: TEG: Human whole blood (±drugs) was added to the cylindrical cuvette (“cup”). […] The cup oscillates 4°45′ ( 1/12 radian) in either direction every 4.5 seconds, with a 1-second mid-cycle stationary period, resulting in a frequency of 0.1 Hz and a maximal shear rate of 0.1 per second. The pin was suspended by a torsion wire that acts as a torque transducer. […] The torque experienced by the pin (relative to the oscillation of the cup) was plotted as a function of time (Forsythe, S. A. M. S. K. M. S. (2000): “Comparative In Vitro Efficacy of Different Platelet Glycoprotein IIb/IIIa Antagonists on Platelet-Mediated Clot Strength Induced by Tissue Factor With Use of Thromboelastography.” Arteriosclerosis, Thrombosis, and Vascular Biology 20: 1162).
(Data represent mean ±SD, n=6 (blood form normal healthy volunteers), *P<0.01 as compared to control)

Where [4] appears, read: THP-1, compound 10 uM, 5 ng/mL LPS, read-out: Mean Percent Inhibition of TNF-alpha using 5 ng/mL LPS.
Where [5] appears, read: TEG, human whole blood, Bevacizumab 1 ng/cup, Comp. 4 0 uM, *P<0.01 vs control.

For `CC(=O)NC1CC(C)(C)N(O)C(C)(C)C1.Cl` [Compound 2, 1-hydroxy-4-acetamido-2,2,6,6-tetramethylpiperidine], the melting point is 180.5 °C (dec.). For the same molecule, the “Lipid Peroxidation Inhibition, % Inhibition” value with Lipid peroxidation is given as 81.0%. In addition, the “Mean OD (×10^−3), MTT viability” value in data set [1] (Dox. 10^−6 M (+)) is recorded as 249.25 ×10^−3. Moreover, in data set [1] (absence of Dox. (−)), the “Mean OD (×10^−3), MTT viability” value is 496.33 ×10^−3. For the same molecule, the inhibition at 10 µM in the data set on TNFα (setting [4]) was 64 ± 5%. Moreover, the IC50 in the data set with TNFα (THP-1, read-out: TNFalpha IC50) was 17 µM. In data set [2], the inhibition in vivo at 0.03 mg was determined as 76.4 ± 9.9% and the “Branch pts ± SEM” value is reported as 84.7 ± 11.1.
With `CC1C(O)C(C)C(C)(C)N(O)C1(C)C.Cl` (centres unmarked) [Compound 6, 2,2,3,5,6,6-Hexamethyl-piperidine-1,4-diol hydrogen chloride salt], the melting point was 191.5 °C (dec.). Also, in the data set with Lipid peroxidation, the “% Lipid Peroxidation inhibition (at 1 uM)” value is reported as 70.5% and the “Lipid Peroxidation Inhibition, % Inhibition” value came out at 89.0%. Moreover, the “Mean OD (×10^−3), MTT viability” value in data set [1] (Dox. 10^−6 M (+)) is reported as 185.25 ×10^−3. Further, in data set [1] (absence of Dox. (−)), the “Mean OD (×10^−3), MTT viability” value is 367.00 ×10^−3. The inhibition at 10 µM with TNFα (setting [4]) was 54 ± 6%. Also, the half-inhibitory concentration (IC50) with TNFα (THP-1, read-out: TNFalpha IC50) is 29.4 µM. In data set [2], the inhibition in vivo at 0.03 mg amounted to 40.4 ± 9.3% and the “Branch pts ± SEM” value came out at 78.6 ± 7.3.
Consider `CC1(C)CC(NC(=O)N2CCOCC2)CC(C)(C)N1O.Cl` [Compound 11, N-(2,2,6,6-tetramethylpiperidin-1-hydroxyl-4-yl)morpholine-4-carboxamide hydrogen chloride], for which the melting point is 158.1 °C (dec.). Further, the “Lipid Peroxidation Inhibition, % Inhibition” value in the data set with Lipid peroxidation was found to be 82.7%. Besides, the “Mean OD (×10^−3), MTT viability” value in data set [1] (Dox. 10^−6 M (+)) is 267.25 ×10^−3. In addition, in data set [1] (absence of Dox. (−)), the “Mean OD (×10^−3), MTT viability” value is given as 470.25 ×10^−3. The inhibition at 10 µM with TNFα (setting [4]) stood at 24 ± 5%. Also, the IC50 in the data set with TNFα (THP-1, read-out: TNFalpha IC50) worked out at 20.7 µM. Also, in data set [2], the inhibition in vivo at 0.03 mg was 71 ± 8.8% and the “Branch pts ± SEM” value is listed as 64.0 ± 5.1.
With `CC1(C)CC(O)C(C)(C)N1O` (centres unmarked) [Compound 7, 2,2,5,5-Tetramethyl-pyrrolidine-1,3-diol], the “Lipid Peroxidation Inhibition, % Inhibition” value with Lipid peroxidation was found to be 82.9%. For the same molecule, the results for the “Mean OD (×10^−3), MTT viability” value in data set [1] (Dox. 10^−6 M (+)) and in data set [1] (absence of Dox. (−)) were 241.25 ×10^−3 and 540.25 ×10^−3, respectively. The inhibition at 10 µM in the data set with TNFα (setting [4]) turned out to be 69 ± 2%. Moreover, in the data set with TNFα (THP-1, read-out: TNFalpha IC50), the 50% inhibitory concentration (IC50) is 44.9 µM. For the same molecule, in data set [2], the inhibition in vivo at 0.03 mg was determined as 124 ± 8.4%. Besides, the “Branch pts ± SEM” value in data set [2] was 40.8 ± 9.7.
As to `CC1(C)CC(N2CCOCC2)CC(C)(C)N1O.Cl` [Compound 3, 4-(2,2,6,6-tetramethylpiperidin-1-hydroxy-4-yl)morpholine hydrogen chloride], in the data set on Lipid peroxidation, the “Lipid Peroxidation Inhibition, % Inhibition” value is 77.8%. The “Mean OD (×10^−3), MTT viability” value in data set [1] (Dox. 10^−6 M (+)) was 289.50 ×10^−3. The “Mean OD (×10^−3), MTT viability” value in data set [1] (absence of Dox. (−)) is 640.25 ×10^−3. Besides, the inhibition at 10 µM in the data set with TNFα (setting [4]) came out at 60 ± 2%. The IC50 in the data set with TNFα (THP-1, read-out: TNFalpha IC50) was determined as 11.6 µM. Besides, in data set [2], the inhibition in vivo at 0.03 mg is 54.7 ± 7.9% and the “Branch pts ± SEM” value was 95.1 ± 5.6.
As to `CC1(C)CC(=O)CC(C)(C)N1O` [Compound 5, 1-Hydroxy-2,2,6,6-tetramethyl-piperidin-4-one], in the data set with Lipid peroxidation, the “% Lipid Peroxidation inhibition (at 1 uM)” value was 71.0% and the “Lipid Peroxidation Inhibition, % Inhibition” value came out at 86.3%. For the same molecule, the “Mean OD (×10^−3), MTT viability” value in data set [1] (Dox. 10^−6 M (+)) is 245.50 ×10^−3. Further, the “Mean OD (×10^−3), MTT viability” value in data set [1] (absence of Dox. (−)) is recorded as 556.50 ×10^−3. Also, the inhibition at 10 µM in the data set with TNFα (THP-1, read-out: Mean Percent Inhibition of TNF-alpha using 5 ng/mL LPS) amounted to 66 ± 7%. Further, the concentration for half-maximal inhibition (IC50) with TNFα (THP-1, read-out: TNFalpha IC50 (uM)) was found to be 22.2 µM. In data set [2], the inhibition in vivo at 0.03 mg was 26.5 ± 7.9% and the “Branch pts ± SEM” value stood at 86.1 ± 9.8.
For “Bevacizumab: a monoclonal antibody against vascular endothelial growth factor used to treat cancer by inhibiting angiogenesis [reference compound]”, in data set [3], the “MA in comparison to native blood” value is “approximately six times larger MA” and the “initiation of clot formation in comparison to native blood” value is “approximately two to three fold faster”. Further, in data set [3] (setting [5]), the “Clot Strength - MA” value is 33.8 ± 5.6* mm and the “Time to Clot Initiation R” value is 7.8 ± 1.1* min.
Regarding `COC1CC(C)(C)N(O)C(C)(C)C1.Cl` [Compound 1, 1-hydroxy-4-methoxy-2,2,6,6-tetramethylpiperidine hydrogen chloride], in the data set with Lipid peroxidation, the “% Lipid Peroxidation inhibition (at 1 uM)” value is reported as 74.1% and the “Lipid Peroxidation Inhibition, % Inhibition” value turned out to be 90.8%. Also, in data set [1] (Dox. 10^−6 M (+)), the “Mean OD (×10^−3), MTT viability” value is on record as 246.50 ×10^−3. Besides, in data set [1] (absence of Dox. (−)), the “Mean OD (×10^−3), MTT viability” value was 524.75 ×10^−3. For the same molecule, the inhibition at 10 µM with TNFα (setting [4]) stood at 50 ± 9%. Further, the IC50 in the data set on TNFα (THP-1, read-out: TNFalpha IC50) amounted to 16.8 µM. In data set [2], the inhibition in vivo at 0.03 mg is 89.9 ± 18% and the “Branch pts ± SEM” value came out at 74 ± 8.6.
